Key:
Type in all cases: cell-based, human
hPSCs [1] = assay: Apoptosis and cytotoxicity assay (Annexin V / 7-AAD); settings: 5 days; for apoptosis marker, (Annexin V, early apoptosis marker; FIG. 8): DMSO control 0.5%; for apoptosis marker, (7-AAD, late apoptosis marker; FIG. 8): DMSO control 6.2%
Method: In order to confirm apoptosis, hPSCs were treated with 10 nM cP1P in the same manner as in Example 1, hPSCs were separated using cell dissociation buffer (Thermo Fisher Scientific US, A1110501), and harvested cells were washed with DPBS (pH 7.4) 2 times. After centrifuged at 2,000 rpm for 5 minutes. The cells were resuspended at 1×10^5 cells per 100 ul of 1× binding buffer to which 10× binding buffer (0.1 M HEPES, 1.4 M NaCl, 25 mM CaCl2, pH 7.4) was diluted. They were added with 5 ul each of Annexin V (BD bioscience US, 556422) and 7-AAD (BD bioscience U.S. Pat. No. 1,559,925) and mixed slowly. They were cultured for 15 minutes in the dark at room temperature and added with 400 ul of 1× binding buffer. Then, analysis was performed using the Annexin V apoptosis detection kit (BD Pharmingen US, 556547).
In order to confirm whether apoptosis and cytotoxicity were induced when hPSCs were treated with cP1P, hPSCs were treated with 10 nM or 100 nM cP1P for 5 days in the same manner as in Example 6, and then Annexin V apoptosis detection kit (BD Pharmingen US, 556547) was used for analysis.

hPSCs [2] = assay: hPSC proliferation during subculture (total number of cells); settings: continuous 10 nM, subculture 3 times, P<0.01
Method: In order to check whether the change in hPSCs proliferation ability by cP1P treatment is maintained during subculture, hPSCs were continuously treated with 10 nM cP1P in the same manner as in Example 1, and after subculture 3 times, the proliferation change of hPSCs was confirmed.

hPSCs [3] = assay: RNA sequencing of hPSCs after long-term (15 passages) treatment; settings: 10 nM
Method: Specifically, hPSCs were treated and cultured with 10 nM cP1P or were treated and cultured with DMSO as a control group in the same manner as in Example 1. The passage in which cP1P was first treated was defined as 0 and cultured up to a total of 15 passages. After the cells were recovered, and RNAs were extracted. The RNA sequencing analysis was performed with a next-generation sequencing analyzer (Illumina HiSeq 2500) by DGIST (Daegu Gyeongbuk Institute of Science and Technology) asked to analyze the cells.

hPSCs [4] = assay: Alkaline phosphatase staining of hPSCs (undifferentiation ability); settings: 10 nM, compared to DMSO control
Method: In order to check whether the differentiation ability of hPSCs was changed by cP1P treatment, hPSCs were treated with 10 nM cP1P or a control group (vehicle, DMSO) in the same manner as in Example 2.

hPSCs (CHA-ESC15) = assay: hPSC cell proliferation ability (optical microscopy and cell count); settings: cultured 6 days; for cell proliferation rate increase compared to the control group (FIG. 3): hPSCs, 10 nM, counted day 7, control DMSO; for apoptosis seen in micrographs (FIG. 2): hPSCs, 50, 100 or 500 nM
Method: They were shaken up and down, left and right to evenly disperse the cells and cultured within 24 hours in a 37° C. CO2 incubator. The culture medium was replaced with the E8 culture medium from which Y27632 was removed, and then the cells were cultured by replacing the culture medium every day until the next passage.
On the 7th day, the cells were observed using an optical microscope at a magnification of 100 times.
In addition, in order to measure the number of cells, the culture medium of the cells was removed on the 7th day of culture, and they were washed once with PBS. Then, for PBS-removed cells, cell dissociation buffer ([…]) was used to cause single-cell. The separated cells were centrifuged at 1000 rpm for 2 minutes to remove the buffer. Then, the cells were suspended in an E8 medium, and the number of cells was measured using EVE™ Automated Cell Counter (NanoEnTek).
Meanwhile, the control group was tested in the same manner as above, except that hPSCs were treated with DMSO (AppliChem GE, A3672,0100).
The culture was performed for 6 days, and hPSCs were observed on the 7th day. The proliferation rate was calculated as {(total number of cells in P1P, cP1P, or SW treatment group)/(total number of cells in the control group)}×100.

CDK1, Cyclin B = assay: Expression of cell cycle regulatory genes in hPSCs; settings: 10 nM, compared to control
Method: (§1) For expression analysis of cell cycle regulatory genes, hPSCs were treated with 10 nM cP1P in the same manner as in Example 1. After hPSCs were washed with PBS, hPSCs were fixed in 4% (w/v) PFA (Santa Cruz Biotechnology US, 30525-89-4) for 5 minutes, or after the protein of hPSC cells was recovered, followed by electrophoresis. The expression of pluripotency genes was analyzed (immunofluorescence analysis or Western blot analysis) using anti-REX1(Abcam UK, ab50828), anti-OCT4(Santa Cruz Biotechnology US, sc-5279), anti-SOX2(Abcam UK, ab97959), anti-NANOG(Cell signaling US, 4893s), anti-E-cadherin(Cell signaling US, 24E10), or anti-SSEA4(Merck millipore US, 90231) antibody. Meanwhile, the control group was tested in the same manner as above, except that hPSCs were treated with DMSO (AppliChem GE, A3672,0100).

[5] = tested on: REX1, E-Cadherin, OCT4, SOX2, NANOG, SSEA-4; assay: Pluripotency marker expression in hPSCs (immunofluorescence, pluripotent array kit, flow cytometry, Western blot); settings: 100 nM
Method: as §1
Specifically, hPSCs were treated with 100 nM cP1P in the same manner as in Example 1. Immunofluorescence analysis was performed in the same manner as in Example 6. Expression of pluripotency-related genes was analyzed using a pluripotent array kit (R&D System US, ARY101). Flow cytometry was performed in the same manner as in Example 6.

hPSCs [6] = assay: hPSC cell cycle by PI flow cytometry; settings: 10 nM
Method: For flow cytometry, hPSCs were treated with 10 nM cP1P in the same manner as in Example 1, and hPSCs were separated using cell dissociation buffer (Thermo Fisher Scientific US, A1110501), and harvested cells were washed three times with DPBS (pH 7.4). After washing, the supernatant was removed. During washing, cold 70% (v/v) ethanol was added dropwise to the cell pellet. The cells were fixed at 4° C. for 1 hour and washed 3 times with DPBS (pH 7.4). After centrifugation at 2,000 rpm for 5 minutes, 50 uL of 100 μg/ml RNase (Sigma-Aldrich US, R4642) was added. They were mixed well and added with 200 μl of PI (propidium iodide) (Sigma-Aldrich US, P4170) (50 μg/ml) to stain the DNA. Then, the DNA content was measured using flow cytometry (BD).

CCCCCCCCCCCCCC[C@@H](O)[C@H]1OP(=O)(O)OC[C@@H]1N [cP1P, o-cyclic phytosphingosine-1-phosphate]
apoptosis compared to the control group (FIG. 8) (hPSCs [1]; 10 nM or 100 nM): reduced
cytotoxicity compared to the control group (FIG. 8) (hPSCs [1]; 10 nM or 100 nM): significantly lowered
apoptosis marker, (Annexin V, early apoptosis marker; FIG. 8) (hPSCs [1]; 10 nM): 0.9%
apoptosis marker, (7-AAD, late apoptosis marker; FIG. 8) (hPSCs [1]; 10 nM): 3.9%
apoptosis marker, (Annexin V, early apoptosis marker; FIG. 8) (hPSCs [1]; 100 nM): 1.9%
apoptosis marker, (7-AAD, late apoptosis marker; FIG. 8) (hPSCs [1]; 100 nM): 5.3%
total number of cells as subculture was performed (FIG. 6) (hPSCs [2]): increased significantly
cluster 5 (C5) gene expression (cell development, embryo development, cell proliferation genes) (hPSCs [3]; decreased in untreated control): stably maintained
cluster 2 (C2) gene expression (oxidative stress and apoptotic process genes) (hPSCs [3]; increased in untreated control): decreased
gene expression changes (DEG) compared with passage 0 (FIG. 10) (hPSCs [3]; no cP1P-treated group 575): 197
undifferentiation ability (alkaline phosphatase staining, FIG. 4) (hPSCs [4]): well maintained
cell proliferation rate increase compared to the control group (FIG. 3) (hPSCs (CHA-ESC15)): 1.78 times
cell proliferation ability (FIG. 2) (hPSCs (CHA-ESC15); hPSCs, 50, 100 or 500 nM every 2 days, observed day 7, compared to P1P or S1P): significantly increased
expression of genes regulating the cell cycle (CDK1, Cyclin B; FIGS. 7C to 7E) (CDK1, Cyclin B): increased
expression of pluripotency marker genes REX1, E-Cadherin, OCT4 and SOX2 (immunofluorescence, FIG. 9A) ([5]; compared to control): increased
protein expression of OCT4 and E-Cadherin (FIG. 9D) ([5]; compared to control): increased
spots of pluripotency-related genes OCT4, NANOG, SOX2 and E-Cadherin (array, FIG. 9B) ([5]; compared to control): detected to be high
protein expression of SSEA-4 (FIG. 9C) ([5]; control 68.8%): 82.2%
protein expression of E-Cadherin (FIG. 9C) ([5]; control 81.8%): 85.6%
protein expression of REX1 (FIG. 9C) ([5]; control 86.8%): 95.7%
protein expression of OCT4 (FIG. 9C) ([5]; control 95.2%): 96.5%
increase of cell proliferation compared to the control group (FIG. 7A) (hPSCs [6]): ≥ 12%
number of cells in G2/M phase (FIG. 7B) (hPSCs [6]; compared to control, P<0.01): significantly increased
number of cells in sub-GO phase (apoptotic cells, FIG. 7B) (hPSCs [6]; compared to control, P>0.05): significantly reduced
cell proliferation, experimental group (FIG. 7A) (hPSCs [6]; control group 48%): 60%

CCCCCCCCCCCCC/C=C/[C@@H](O)[C@@H](N)COP(=O)(O)O [S1P, sphingosine-1-phosphate]
cell proliferation rate increase compared to the control group (FIG. 3) (hPSCs (CHA-ESC15)): about 1.25 times
apoptosis seen in micrographs (FIG. 2) (hPSCs (CHA-ESC15); observed day 7): apoptosis occurred

CCCCCCCCCCCCCC[C@@H](O)[C@@H](O)[C@@H](N)COP(=O)(O)O [P1P, phytosphingosine-1-phosphate]
cell proliferation rate increase compared to the control group (FIG. 3) (hPSCs (CHA-ESC15)): about 1.55 times
apoptosis seen in micrographs (FIG. 2) (hPSCs (CHA-ESC15); observed day 7): apoptosis occurred

From patent US20220380724A1, “COMPOSITION FOR PROMOTING PROLIFERATION OF STEM CELLS, CONTAINING, AS ACTIVE INGREDIENT, CP1P OR PHARMACEUTICALLY ACCEPTABLE SALT THEREOF” (INDUSTRY-UNIVERSITY COOPERATION FOUNDATION HANYANG …, priority 2019, published 2022)
